The test system of this test is pS6K1 in MCF7. Briefly: AlphaLISA Ultra pS6K1 Assay. The test is classed as cell-based. The following applies: Homo sapiens, 1.5 h; MCF7 cells, 90 min incubation. As to the method: Example 74: AlphaLISA Ultra pS6K1 Assay
Assay Protocol: • 1. Seed MCF-7 cells in Corning 3701 plate and incubate for 20˜24 hour. 12,000˜16,000 cells will be seeded in 36 μL medium per well. • 2. Change the culture medium with fresh medium and incubate for another 2 hours. • 3. Add 12 μL (4×) compounds into the cell plate by HAMILTON. Final DMSO concentration is 0.5%. Incubate for 90 minutes. • 4. Aspirate 38 μL by HAMILTON, 10 μL rest per well. • 5. Add 10 μL 2× lysis buffer using HAMILTON; total volume in wells is 20 μL. Allow cells to shake for 30 min. Cover plate by plastic foil and store plate at −80° C. up to analysis. • 6. Thaw cell lysate at RT and transfer 10 μL lysate to assay plate (Optiplate-384). • 7. Add 5 μL acceptor beads into assay plate and incubation for 2 hours • 8. Add 5 μL donor beads and incubation for 2 hours • 9. Count the plate by EnSpire Multimode Plate Reader
On the technique in general: Alpha assays give light when donor and acceptor beads are brought close together.

For orientation: IC50 means the concentration at which inhibition is half-maximal. Low values mean higher potency, high ones lower potency. Consider `CO[C@@H]1C[C@H](C[C@@H](C)[C@@H]2CC(=O)[C@H](C)/C=C(\C)[C@@H](O)[C@@H](OC)C(=O)[C@H](C)C[C@H](C)/C=C/C=C/C=C(\C)[C@H](OCCOc3ccccc3)C[C@@H]3CC[C@@H](C)[C@@](O)(O3)C(=O)C(=O)N3CCCC[C@H]3C(=O)O2)CC[C@H]1OCCO` [Example I-6, (26E,28E,30E,31E,38R,39S,40R,41R,43S,45S,47R,48S,49R,50R,59R)-49,59-dihydroxy-48-[(1R)-2-[(1S,3R,4R)-4-(2-hydroxyethoxy)-3-methoxy-cyclohexyl]-1-methyl-ethyl]-50-methoxy-38,39,40,41,51,52-hexamethyl-47-(2-phenoxyethoxy)-69,70-dioxa-60-azatricyclohexatriaconta-26,28,30(51),31(52)-tetraene-53,54,55,56,57-pentone], for which the IC50 lay in the range of 1 to 10 nM.

For `CO[C@@H]1C[C@H](C[C@@H](C)[C@@H]2CC(=O)[C@H](C)/C=C(\C)[C@@H](O)[C@@H](OC)C(=O)[C@H](C)C[C@H](C)/C=C/C=C/C=C(\C)[C@H](OCCOC3COC3)C[C@@H]3CC[C@@H](C)[C@@](O)(O3)C(=O)C(=O)N3CCCC[C@H]3C(=O)O2)CC[C@H]1OCCO` [Example I-8, (23E,25E,27E,28E,34R,35S,36R,37R,39S,41S,43R,44S,46R,47R,56R)-46,56-dihydroxy-44-[(1R)-2-[(1S,3R,4R)-4-(2-hydroxyethoxy)-3-methoxy-cyclohexyl]-1-methyl-ethyl]-47-methoxy-34,35,36,37,48,49-hexamethyl-43-[2-(oxetan-3-yloxy)ethoxy]-67,68-dioxa-57-azatricyclohexatriaconta-23,25,27(48),28(49)-tetraene-50,51,52,53,54-pentone], the IC50 lay in the range of 1 to 10 nM.

In turn, `CO[C@@H]1C[C@H](C[C@@H](C)[C@@H]2CC(=O)[C@H](C)/C=C(\C)[C@@H](O)[C@@H](OC)C(=O)[C@H](C)C[C@H](C)/C=C/C=C/C=C(\C)C(OCC3CCCCC3)C[C@@H]3CC[C@@H](C)[C@@](O)(O3)C(=O)C(=O)N3CCCC[C@H]3C(=O)O2)CC[C@H]1OCCO` (stereo partly drawn) [Example I-10, (26E,28E,30E,31E,36R,37S,38R,39R,42S,44S,47S,48R,49R,58R)-46-(cyclohexylmethoxy)-48,58-dihydroxy-47-[(1R)-2-[(1S,3R,4R)-4-(2-hydroxyethoxy)-3-methoxy-cyclohexyl]-1-methyl-ethyl]-49-methoxy-36,37,38,39,50,51-hexamethyl-68,69-dioxa-59-azatricyclohexatriaconta-26,28,30(50),31(51)-tetraene-52,53,54,55,56-pentone] gave a concentration for half-maximal inhibition (IC50) of 1 to 10 nM.

With `CO[C@@H]1C[C@H](C[C@@H](C)[C@@H]2CC(=O)[C@H](C)/C=C(\C)[C@@H](O)[C@@H](OC)C(=O)[C@H](C)C[C@H](C)/C=C/C=C/C=C(\C)C(OCC3CCCCO3)C[C@@H]3CC[C@@H](C)[C@@](O)(O3)C(=O)C(=O)N3CCCC[C@H]3C(=O)O2)CC[C@H]1OCCO` (stereo partly drawn) [Example I-11, (25E,27E,29E,30E,35R,36S,37R,38R,40S,43S,46S,47R,48R,57R)-47,57-dihydroxy-46-[(1R)-2-[(1S,3R,4R)-4-(2-hydroxyethoxy)-3-methoxy-cyclohexyl]-1-methyl-ethyl]-48-methoxy-35,36,37,38,49,50-hexamethyl-45-(tetrahydropyran-2-ylmethoxy)-68,69-dioxa-58-azatricyclohexatriaconta-25,27,29(49),30(50)-tetraene-51,52,53,54,55-pentone], the IC50 is less than 0.1 nM.

`CO[C@@H]1C[C@H](C[C@@H](C)[C@@H]2CC(=O)[C@H](C)/C=C(\C)[C@@H](O)[C@@H](OC)C(=O)[C@H](C)C[C@H](C)/C=C/C=C/C=C(\C)C(OCCOc3ccccc3)C[C@@H]3CC[C@@H](C)[C@@](O)(O3)C(=O)C(=O)N3CCCC[C@H]3C(=O)O2)CC[C@H]1OCCO` (stereo partly drawn) [Example I-12, (26E,28E,30E,31E,38R,39S,40R,41R,43S,45S,48S,49R,50R,59R)-49,59-dihydroxy-48-[(1R)-2-[(1S,3R,4R)-4-(2-hydroxyethoxy)-3-methoxy-cyclohexyl]-1-methyl-ethyl]-50-methoxy-38,39,40,41,51,52-hexamethyl-47-(2-phenoxyethoxy)-69,70-dioxa-60-azatricyclohexatriaconta-26,28,30(51),31(52)-tetraene-53,54,55,56,57-pentone] registered an IC50 of 0.1 to 1 nM.

`CO[C@@H]1C[C@H](C[C@@H](C)[C@@H]2CC(=O)[C@H](C)/C=C(\C)[C@@H](O)[C@@H](OC)C(=O)[C@H](C)C[C@H](C)/C=C/C=C/C=C(\C)C(OCCOC3CCOCC3)C[C@@H]3CC[C@@H](C)[C@@](O)(O3)C(=O)C(=O)N3CCCC[C@H]3C(=O)O2)CC[C@H]1OCCO` (stereo partly drawn) [Example I-13, (25E,27E,29E,30E,36R,37S,38R,39R,42S,44S,47S,48R,49R,58R)-48,58-dihydroxy-47-[(1R)-2-[(1S,3R,4R)-4-(2-hydroxyethoxy)-3-methoxy-cyclohexyl]-1-methyl-ethyl]-49-methoxy-36,37,38,39,50,51-hexamethyl-46-(2-tetrahydropyran-4-yloxyethoxy)-69,70-dioxa-59-azatricyclohexatriaconta-25,27,29(50),30(51)-tetraene-52,53,54,55,56-pentone]: the IC50 lay in the range of 1 to 10 nM.

Regarding `CO[C@@H]1C[C@H](C[C@@H](C)[C@@H]2CC(=O)[C@H](C)/C=C(\C)[C@@H](O)[C@@H](OC)C(=O)[C@H](C)C[C@H](C)/C=C/C=C/C=C(\C)C(OCCOC3COC3)C[C@@H]3CC[C@@H](C)[C@@](O)(O3)C(=O)C(=O)N3CCCC[C@H]3C(=O)O2)CC[C@H]1OCCO` (stereo partly drawn) [Example I-14, (23E,25E,27E,28E,34R,35S,36R,37R,39S,41S,44S,46R,47R,56R)-46,56-dihydroxy-44-[(1R)-2-[(1S,3R,4R)-4-(2-hydroxyethoxy)-3-methoxy-cyclohexyl]-1-methyl-ethyl]-47-methoxy-34,35,36,37,48,49-hexamethyl-43-[2-(oxetan-3-yloxy)ethoxy]-67,68-dioxa-57-azatricyclohexatriaconta-23,25,27(48),28(49)-tetraene-50,51,52,53,54-pentone], the IC50 is 0.1 to 1 nM.

For `COCCOc1ccc(C2C[C@@H]3CC[C@@H](C)[C@@](O)(O3)C(=O)C(=O)N3CCCC[C@H]3C(=O)O[C@H]([C@H](C)C[C@@H]3CC[C@@H](O)[C@H](OC)C3)CC(=O)[C@H](C)/C=C(\C)[C@H](O)[C@@H](OC)C(=O)[C@H](C)C[C@H](C)/C=C/C=C/C=C/2C)c(OC)c1` (stereo partly drawn) [Example I-24, (26E,28E,30E,31E,38R,39S,40R,41R,43S,45S,48S,49S,50R,59R)-49,59-dihydroxy-48-[(1R)-2-[(1S,3R,4R)-4-hydroxy-3-methoxy-cyclohexyl]-1-methyl-ethyl]-50-methoxy-46-[2-methoxy-4-(2-methoxyethoxy)phenyl]-38,39,40,41,51,52-hexamethyl-69,70-dioxa-60-azatricyclohexatriaconta-26,28,30(51),31(52)-tetraene-53,54,55,56,57-pentone], the IC50 was 1 to 10 nM.

In turn, `COCCS(=O)(=O)CCOC1C[C@@H]2CC[C@@H](C)[C@@](O)(O2)C(=O)C(=O)N2CCCC[C@H]2C(=O)O[C@H]([C@H](C)C[C@@H]2CC[C@@H](OCCO)[C@H](OC)C2)CC(=O)[C@H](C)/C=C(\C)[C@@H](O)[C@@H](OC)C(=O)[C@H](C)C[C@H](C)/C=C/C=C/C=C/1C` (stereo partly drawn) [Example I-25, (22E,24E,26E,27E,35R,36S,37R,38R,40S,42S,45S,46R,47R,56R)-46,56-dihydroxy-45-[(1R)-2-[(1S,3R,4R)-4-(2-hydroxyethoxy)-3-methoxy-cyclohexyl]-1-methyl-ethyl]-47-methoxy-44-[2-(2-methoxyethylsulfonyl)ethoxy]-35,36,37,38,48,49-hexamethyl-68,69-dioxa-57-azatricyclohexatriaconta-22,24,26(48),27(49)-tetraene-50,51,52,53,54-pentone] had an IC50 of 0.1 to 1 nM.

Molecule `COCCS(=O)(=O)CCOC1C[C@@H]2CC[C@@H](C)[C@@](O)(O2)C(=O)C(=O)N2CCCC[C@H]2C(=O)O[C@H]([C@H](C)C[C@@H]2CC[C@@H](O)[C@H](OC)C2)CC(=O)[C@H](C)/C=C(\C)[C@@H](O)[C@@H](OC)C(=O)[C@H](C)C[C@H](C)/C=C/C=C/C=C/1C` (stereo partly drawn) [Example I-26, (22E,24E,26E,27E,33R,34S,35R,36R,38S,40S,43S,44R,45R,54R)-44,54-dihydroxy-43-[(1R)-2-[(1S,3R,4R)-4-hydroxy-3-methoxy-cyclohexyl]-1-methyl-ethyl]-45-methoxy-42-[2-(2-methoxyethylsulfonyl)ethoxy]-33,34,35,36,46,47-hexamethyl-66,67-dioxa-55-azatricyclohexatriaconta-22,24,26(46),27(47)-tetraene-48,49,50,51,52-pentone] gave an IC50 of 0.1 to 1 nM.

As for `CO[C@@H]1C[C@H](C[C@@H](C)[C@@H]2CC(=O)[C@H](C)/C=C(\C)[C@@H](O)[C@@H](OC)C(=O)[C@H](C)C[C@H](C)/C=C/C=C/C=C(\C)[C@H](OCCCC(N)=O)C[C@@H]3CC[C@@H](C)[C@@](O)(O3)C(=O)C(=O)N3CCCC[C@H]3C(=O)O2)CC[C@H]1OCCO` [Example I-28, 4-[[(21E,23E,25E,26E,33R,34S,35R,36R,38S,40S,42R,43S,44R,45R,55R)-44,55-dihydroxy-43-[(1R)-2-[(1S,3R,4R)-4-(2-hydroxyethoxy)-3-methoxy-cyclohexyl]-1-methyl-ethyl]-45-methoxy-33,34,35,36,46,47-hexamethyl-48,49,50,51,52-pentaoxo-67,68-dioxa-57-azatricyclohexatriaconta-21,23,25(46),26(47)-tetraen-42-yl]oxy]butanamide], the IC50 is 10 to 100 nM.

(Values after US11819476B2, “Rapamycin analogs and uses thereof” (Janssen Pharmaceutica NV, priority 2019, dated 2023).)
